Reference: PMC9743093 (Journal of Medicinal Chemistry, 2022)
Where a SMILES comes first, the peptide text is derived from it. The star is where a group is joined. Cbz = O=C(OCc1ccccc1)*

Assays:
IDO1 [1] = target: T1, IDO1 (Homo sapiens, UniProt P14902); test: IDO1 degradation by western blot in IFNγ-stimulated U87 cells; settings: for effect of co-treatment on NU223612-induced IDO1 degradation: combined with NU223612; for effect on IDO1 protein levels: U87 and GBM43 GBM cells in vitro, western blot
T1 sequence (P14902 whole entry): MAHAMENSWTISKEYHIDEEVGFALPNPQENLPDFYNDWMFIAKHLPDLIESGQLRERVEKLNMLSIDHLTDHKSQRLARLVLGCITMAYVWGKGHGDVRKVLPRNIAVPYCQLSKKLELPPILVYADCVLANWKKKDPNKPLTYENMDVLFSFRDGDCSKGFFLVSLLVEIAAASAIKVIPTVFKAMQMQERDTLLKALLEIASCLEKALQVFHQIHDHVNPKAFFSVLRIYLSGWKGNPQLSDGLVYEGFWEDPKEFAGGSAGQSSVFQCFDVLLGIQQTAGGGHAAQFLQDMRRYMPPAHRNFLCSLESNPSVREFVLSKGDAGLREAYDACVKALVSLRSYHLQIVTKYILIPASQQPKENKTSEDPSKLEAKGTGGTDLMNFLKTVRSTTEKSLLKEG

IDO1 [2] = target: T1, IDO1; test: BLI binding of compounds to immobilized IDO1
[3] = target: NU223612/IDO1/CRBN ternary complex (Homo sapiens, UniProt P14902+Q96SW2); test: BLI of NU223612 pre-incubated with CRBN binding to IDO1
Chain of NU223612/IDO1/CRBN ternary complex (P14902 whole entry): as above
Chain of NU223612/IDO1/CRBN ternary complex (Q96SW2 whole entry): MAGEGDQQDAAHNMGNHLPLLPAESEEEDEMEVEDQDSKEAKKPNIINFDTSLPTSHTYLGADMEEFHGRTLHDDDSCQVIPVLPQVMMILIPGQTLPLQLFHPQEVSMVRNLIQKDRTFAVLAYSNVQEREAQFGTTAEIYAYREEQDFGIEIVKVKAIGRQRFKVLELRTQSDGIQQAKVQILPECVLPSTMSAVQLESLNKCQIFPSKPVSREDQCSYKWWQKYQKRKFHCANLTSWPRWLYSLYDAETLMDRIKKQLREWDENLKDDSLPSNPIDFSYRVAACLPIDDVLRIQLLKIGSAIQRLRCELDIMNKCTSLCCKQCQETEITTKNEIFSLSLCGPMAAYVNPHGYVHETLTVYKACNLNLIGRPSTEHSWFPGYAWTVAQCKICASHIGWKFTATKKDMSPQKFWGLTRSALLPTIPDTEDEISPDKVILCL

IDO1 [4] = target: T1, IDO1; test: IDO1 ubiquitination assay in U87 IDO1-FLAG cDNA-expressing cells; format: cell-based; settings: immunoprecipitation, vs DMSO
TDO2 = TDO2 (Homo sapiens, UniProt P48775); test: TDO2 western blot in U87 cells; format: cell-based; settings: 24 h
Chain of TDO2 (P48775 whole entry): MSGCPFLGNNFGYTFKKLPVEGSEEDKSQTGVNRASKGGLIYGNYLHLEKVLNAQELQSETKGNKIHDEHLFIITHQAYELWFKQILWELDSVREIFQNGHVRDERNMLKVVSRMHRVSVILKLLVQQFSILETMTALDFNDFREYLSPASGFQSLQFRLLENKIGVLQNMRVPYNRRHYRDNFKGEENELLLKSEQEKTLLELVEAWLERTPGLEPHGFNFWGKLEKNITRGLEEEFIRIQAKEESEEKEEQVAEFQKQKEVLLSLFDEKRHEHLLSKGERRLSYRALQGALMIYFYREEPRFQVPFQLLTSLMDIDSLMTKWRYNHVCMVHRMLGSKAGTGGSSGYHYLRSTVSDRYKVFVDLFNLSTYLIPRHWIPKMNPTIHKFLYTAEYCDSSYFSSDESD

IDO1 enzyme activity = IDO1 enzyme activity (Homo sapiens, UniProt P14902); test: Kynurenine assay; format: cell-based; settings: IFNγ-stimulated GBM cells (U87, GBM43), 24 h
Chain of IDO1 enzyme activity (P14902 whole entry): as the sequence (P14902 whole entry) above

[5] = system: NF-κB p65 phosphorylation; test: NF-κB p65 phosphorylation by western blot; format: cell-based, human; settings: IFNγ-stimulated U87, GBM43 or MDA-MB-231 cells
[6] = system: NF-κB p65 DNA binding activity; test: NF-κB; format: cell-based, human; settings: U87 nuclear extracts, 10 μM
IDO1 [7] = test: IDO1 degradation by western blot in further cancer cell lines; format: cell-based, human; settings: CD18, PANC-1, OVCAR5, SKOV3, PC3, GL261 IDO1-O/E; 24 h
IDO1 [8] = target: T1, IDO1; test: IDO1 degradation by western blot in patient PBMCs; format: cell-based; settings: GBM patient-isolated PBMCs, 50 ng/mL IFNγ
[9] = Pharmacokinetics in C57BL/6 mice; format: in vivo; settings: mouse, single 25 mg/kg ip.
[10] = In vivo toxicity in C57BL/6 mice
GL261-luc. cells = test: Survival of mice with intracranial GL261-luc. tumors; format: in vivo, C57BL/6 mice; settings: 25 mg/kg once per day Monday-Friday up to 3 weeks, from day 14 post-injection
IDO2 = test: IDO1/IDO2 mRNA expression in GL261 cells; format: cell-based, mouse; settings: 10 µM, 24 hours
IDO1 [11] = target: T1, IDO1; test: IDO1 degradation by western blot in IFNγ-stimulated GBM43 cells; settings: 24 h, 0.01-30 μM, n = 3
IDO1 [12] = target: IDO1 (Mus musculus, UniProt P28776); test: Pharmacodynamics: IDO1 western blot of intracranial GL261 mIDO1 tumors; settings: GL261 mIDO1 cDNA tumors, single 25 mg/kg ip.
Chain of IDO1 (Mus musculus, UniProt P28776) (P28776 whole entry): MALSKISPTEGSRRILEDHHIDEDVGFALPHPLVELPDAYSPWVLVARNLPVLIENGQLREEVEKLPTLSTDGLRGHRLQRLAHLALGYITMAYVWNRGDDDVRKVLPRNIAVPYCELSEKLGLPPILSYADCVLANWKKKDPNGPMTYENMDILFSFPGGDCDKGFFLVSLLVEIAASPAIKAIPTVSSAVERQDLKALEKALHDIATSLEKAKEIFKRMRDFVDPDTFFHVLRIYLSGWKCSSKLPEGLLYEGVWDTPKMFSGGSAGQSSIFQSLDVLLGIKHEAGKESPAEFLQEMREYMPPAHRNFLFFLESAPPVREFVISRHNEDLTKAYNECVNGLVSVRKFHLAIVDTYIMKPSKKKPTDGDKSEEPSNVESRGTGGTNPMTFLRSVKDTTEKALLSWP

CRBN = CRBN (Homo sapiens, UniProt Q96SW2); test: BLI binding of compounds to immobilized CRBN; settings: steady-state, 30 °C, PBS with 0.5% DMSO
Chain of CRBN (Q96SW2 whole entry): as the sequence (Q96SW2 whole entry) above

For `CC(C)C[C@@H](C=O)NC(=O)[C@H](CC(C)C)NC(=O)[C@H](CC(C)C)NC(=O)OCc1ccccc1` [MG132, reference compound] (Cbz-Leu-Leu-Leu-aldehyde), the “effect of co-treatment on NU223612-induced IDO1 degradation” value (“effect of co-treatment” for short) (IDO1 [1]; U87 cells) was “ablation of IDO1-PROTAC-mediated IDO1 protein degradation”.
For `NS(=O)(=O)OC[C@@H]1C[C@@H](n2ccc3c(N[C@H]4CCc5ccccc54)ncnc32)C[C@@H]1O` [MLN4924, reference compound], the “effect of co-treatment” value (IDO1 [1]; U87 cells) was “ablation of IDO1-PROTAC-mediated IDO1 protein degradation”.
For `C[C@@H](C(=O)Nc1ccc(OC2CCN(C(=O)CCOCCOCCNc3cccc4c3C(=O)N(C3CCC(=O)NC3=O)C4=O)CC2)cc1)[C@H]1CC[C@@H](c2ccnc3ccc(F)cc32)CC1` (stereo partly drawn) [NU223612, (2R)-N-(4-((1-(3-(2-(2-((2-(2,6-Dioxopiperidin-3-yl)-1,3-dioxoisoindolin-4-Yl)amino)ethoxy)ethoxy)propanoyl)piperidin-4-yl)oxy)phenyl)-2-((1S,4S)-4-(6-fluoroquinolin-4-yl)cyclohexyl)propenamide], the koff (IDO1 [2]; read-out: koff, NU223612/IDO1 binary complex) was 0.042 s⁻¹, the kon (IDO1 [2]; read-out: kon, NU223612/IDO1 binary complex) was 68900 M⁻¹ s⁻¹ and the Kd [3] was 117 nM. The “cooperativity α = Kd binary/Kd ternary” value [3] was 2.5, the koff ([3]; read-out: koff, ternary NU223612/CRBN/IDO1 complex) was 0.0015 s⁻¹ and the kon ([3]; read-out: kon, ternary NU223612/CRBN/IDO1 complex) was 12800 M⁻¹ s⁻¹. The “ubiquitination of IDO1” value (IDO1 [4]) was “causes monoubiquitination of IDO1”, the “effect on TDO2 protein levels” value (TDO2) was “did not decrease TDO2 protein levels” and the “IDO1 enzyme activity (Kyn levels)” value (IDO1 enzyme activity) was “dose-dependently inhibits IDO1 enzyme activity”. For the same compound, the p65 phosphorylation [5] was “decreases p65 phosphorylation”, the “NF-κB p65 transcription factor DNA binding activity” value [6] was “inhibits both IDO1-mediated tryptophan metabolism as well as IDO1 non-enzyme-mediated NF-κB p65 transcription factor DNA binding activity” and the “IDO1 degradation in other cancer cell types” value (IDO1 [7]) was “dose-dependently degrades IDO1 in all of the human cancer cell types that were analyzed”. For the same compound, the “IDO1 degradation in PBMCs” value (IDO1 [8]) was “degrades IDO1 protein”, the “Cmax, brain” value [9] was 2000 nM and the mortality ([10]; 100 mg/kg ip. 5 days/week for 3 weeks) was “increased mortality”. For the same compound, the “precipitation of compound in the abdomen” value ([10]; 50 and 100 mg/kg doses ip.) was “precipitation of NU223612 observed around the intestines, liver, and pancreas”, the “accumulation in serum and brain tissue” value ([10]; after 3 weeks ip., mice without brain tumors, mass spectrometry) was “dose-dependent accumulation of NU223612 in serum and brain tissue” and the body-weight changes ([10]; ip. 5 days/week for 3 weeks, 10, 25, 50 or 100 mg/kg) was “did not result in significant body-weight changes at any dose”. The “longer-term survival post-tumor cell injection” value (GL261-luc. cells) was “up to 45 days”, the “IDO2 (and IDO1) mRNA expression levels” value (IDO2) was “no significant NU223612 effects on glioma cell IDO2 expression levels” and the “effect on IDO1 protein levels” value (IDO1 [1]) was “decreases IDO1 protein levels dose-dependently”. The “degradation of catalytically inactive mutant IDO1” value (IDO1 [1]; U87 cells transfected with enzyme-null IDO1 cDNA, 24 h) was “facilitated protein degradation of IDO1 enzyme-dead protein”, the “IDO1 protein degradation at 100 nM” value (IDO1 [1]; U87 cells, 100 nM, 24 h) was “significant IDO1 protein degradation” and the “duration of IDO1 degradation after a single continuous treatment” value (IDO1 [1]; U87 cells, 1 and 10 μM) was “up to 72 h”. For the same compound, the DC50 (IDO1 [1]; U87 cells, IFNγ-stimulated, 24 h, 0.01-30 μM, n = 3) was 329 nM, the “effect of washout after 24 h on IDO1 degradation” value (IDO1 [1]; U87 cells, cultured without compound up to 48 h) was “did not affect the degradation of IDO1 protein” and the “nuclear and cytoplasmic IDO1 degradation” value (IDO1 [1]; U87 cells, subcellular fractions) was “equally degraded IDO1 protein levels in both the cytoplasmic and nuclear intracellular compartments”. For the same compound, the “duration of IDO1 degradation effect” value (IDO1 [1]; human GBM cells (U87, GBM43)) was “at least 96 h”, the “time at which IDO1 degradation began after treatment initiation” value (IDO1 [1]; human GBM cells (U87, GBM43)) was 16 h and the DC50 (IDO1 [11]) was 544 nM. For the same compound, the “time IDO1 protein remains low in intracranial tumors” value (IDO1 [12]) was “up to 24 h” and the “decrease of IDO1 protein in intracranial tumors” value (IDO1 [12]; within 2 h post-treatment) was over 70%.
In the case of `C[C@@H](C(=O)Nc1ccc(Cl)cc1)[C@H]1CC[C@@H](c2ccnc3ccc(F)cc32)CC1` [NU223618, reference compound], the p65 phosphorylation [5] is reported as “neither NU226211 nor NU223618 inhibits NF-κB phosphorylation”.
For `C[C@@H](C(=O)Nc1ccc(OC2CCN(C(=O)CCOCCOCCNc3cccc4c3C(=O)N(C3CCC(=O)N(C)C3=O)C4=O)CC2)cc1)[C@H]1CC[C@@H](c2ccnc3ccc(F)cc32)CC1` (stereo partly drawn) [NU226211, (2R)-2-((1S,4S)-4-(6-Fluoroquinolin-4-yl)cyclohexyl)-N-(4-((1-(3-(2-(2-((2-(1-methyl-2,6-dioxopiperidin-3-yl)-1,3-dioxoisoindolin-4-yl)amino)ethoxy)ethoxy)propanoyl)piperidin-4-yl)oxy)phenyl)propenamide], the “binding affinity (Kd) to CRBN” value (CRBN) was “no measurable binding”, the “ubiquitination of IDO1” value (IDO1 [4]) was “neither NU226211 nor NU223618 mediated the ubiquitination” and the p65 phosphorylation [5] was “neither NU226211 nor NU223618 inhibits NF-κB phosphorylation”. For the same compound, the “effect on IDO1 protein levels” value (IDO1 [1]) was “neither NU226211 nor NU223618 decreases IDO1 protein levels”.
In the case of `Nc1cccc2c1C(=O)N(C1CCC(=O)NC1=O)C2=O` (stereo not shown) [pomalidomide, reference compound], the “effect of co-treatment” value (IDO1 [1]; U87 cells) is reported as “ablation of IDO1-PROTAC-mediated IDO1 protein degradation”.
